These results are taken from patent US20200131144A1, “AMINE OR (THIO)AMIDE CONTAINING LXR MODULATORS” (Phenex-FXR GmbH, priority 2017, published 2020).

For series [1], the target named is T1, GST-LXRβ ligand-binding domain (Homo sapiens, UniProt P55055, INS174Q).
T1 construct: amino acids 156-461; NP009052; made in house; host or cells: E. coli
T1 sequence (P55055 with tags, fused parts or gaps INS174Q limits assumed): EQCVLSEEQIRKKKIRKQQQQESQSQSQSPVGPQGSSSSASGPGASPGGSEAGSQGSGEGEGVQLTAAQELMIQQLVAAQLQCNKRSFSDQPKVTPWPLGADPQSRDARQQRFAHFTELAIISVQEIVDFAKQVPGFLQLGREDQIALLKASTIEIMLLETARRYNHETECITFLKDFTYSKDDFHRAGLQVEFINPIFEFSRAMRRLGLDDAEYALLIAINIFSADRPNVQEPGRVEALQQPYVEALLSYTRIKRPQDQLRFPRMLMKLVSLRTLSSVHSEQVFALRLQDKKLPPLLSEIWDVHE
As to the kind of experiment: TR-FRETβ activity assay (NCoA3 coactivator peptide recruitment). Type of series: biochemical. The following applies: 1 μM 24(S)-25-epoxycholesterol as prestimulating agonist; inverse agonist unless *. The procedure, abridged: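 Coactivator recruitment read as TR-FRET (ex 340, em 615 and 665 nm) after 1 h equilibration at 4° C, in triplicate. Mix held 76 nM GST-tagged LXRβ LBD (aa 156-461, E. coli), 400 nM biotin-NCoA3 peptide, Tb-cryptate anti-GST, streptavidin-XL665, 240 mM KCl buffer.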

Series [2] has as its target T2, LXRβ ligand-binding domain (LBD) (Homo sapiens, UniProt P55055, INS174Q).
T2 construct: or LXR (amino acids 156-461); expressed in transfected cells; host or cells: HEK293
T2 sequence (P55055 with tags, fused parts or gaps INS174Q limits assumed): T1 sequence (P55055 with tags, fused parts or gaps INS174Q limits assumed)
As to the kind of experiment: LXR Gal4 reporter transient transfection assay, mammalian two-hybrid, LBD-M2H Gal4β. It counts as cell-based. The following applies: HEK293 cells; inverse agonist unless *. The procedure, abridged: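 Mammalian two-hybrid read-out: interaction of LXRα or LXRβ (full length or ligand-binding domain, NFkB activation-domain fusions) with GAL4-fused SRC1 or NCoR domains drives GAL4-responsive firefly luciferase in HEK293 cells, normalised by Renilla cotransfection. Compounds given 4 h after transfection, ≤0.2% vehicle, cells lysed after 16 h.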

The nature of series [3]: Pharmacokinetics in mice after single oral dosing, blood and liver exposure by LC-MS. The following applies: single oral dose 20 mg/kg; for Kp at 4 h / Kp at 12 h / Kp at 24 h: male, C57/bl6/J, mouse, liver/blood, read-out: liver/blood ratio. It counts as in vivo, mice (C57/bl6/J). The procedure, abridged: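 Male C57BL/6J mice fasted ≥12 h, given a single oral dose of 20 mg/kg (n=3 per group). Sacrifice at 4, 12 or 24 h post-dose; liver and blood levels quantified by LC-MS.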

Structures are written as SMILES. Bounds are passed on as bounds.

Broadly, the EC50 is the midpoint of the concentration-response curve. High values mean weaker potency, low ones greater potency. Consider `Cc1cc(C)c(C(=O)N(Cc2ccc(-c3cccc(C(C)(C)C(=O)O)c3)cc2)Cc2ccc(C(F)(F)F)o2)c(C)c1` [10/1], for which the EC50 in series [1] is 100 to 1000 nM; in series [2] it was < 100 nM.

On to `Cc1ccc2ccccc2c1C(=O)N(Cc1ccc(-c2cccc([C@@H](C)C(=O)O)c2)cc1)Cc1ccc(C(F)(F)F)o1` [10/5], for which, in series [1], the EC50 was < 100 nM. Moreover, in series [3] (time point 4 h), the Kp at 4 h was 45, the blood/plasma exposure worked out at 1.06 µM and the liver exposure is 47.9 µM.

In series [1], `Cc1ccc2ccccc2c1C(=O)N(Cc1ccc(-c2cc(F)c(CO)c(S(=O)(=O)CC(=O)O)c2)cc1)Cc1ccc(C(F)(F)F)o1` [22/8] had a concentration giving a half-maximal response (EC50) of 1000 to 10000 nM. Moreover, in series [2], the concentration for a half-maximal effect (EC50) is < 100 nM. Further, in series [3] (time point 4 h), the Kp at 4 h was 19, the blood/plasma exposure was 1.3 µM and the liver exposure was found to be 23 µM. In series [3] (time point 12 h), the Kp at 12 h is 27, the blood/plasma exposure stood at 0.15 µM and the liver exposure came out at 4.1 µM.

Take `Cc1ccc2ccccc2c1C(=O)N(Cc1ccc(C(F)(F)F)o1)Cc1ccc(-c2cccc(C(C)(C)C(=O)O)c2)cc1C#N` [27/7]: in series [1], the concentration for a half-maximal effect (EC50) is < 100 nM.

For `Cc1ccc2ccccc2c1C(=O)N(Cc1ccc(-c2cccc(C(C)(O)C(=O)O)c2)cc1)Cc1ccc(C(F)(F)F)o1` (stereo not shown) [27/10], in series [1], the EC50 was in the range of 100 to 1000 nM. Moreover, in series [3] (time point 12 h), the Kp at 12 h turned out to be 129, the blood/plasma exposure was 0.01 µM and the liver exposure turned out to be 1.3 µM.

In series [1], `COc1ccc2c(c1CN(Cc1ccc(-c3cccc(C(C)(C)C(=O)O)c3)cc1)Cc1ccc(C(F)(F)F)o1)CCCC2` [27/17] yielded an EC50 of 100 to 1000 nM.

Regarding `Cc1ccc2ccccc2c1C(=O)N(Cc1ccc(-c2cccc(C(C)(C)C(=O)O)c2)cc1)Cc1ccc(C(F)(F)F)o1` [27/26], in series [1], the EC50 is < 100 nM. Besides, in series [3] (time point 4 h), the Kp at 4 h is 5.5, the blood/plasma exposure stood at 16 µM and the liver exposure turned out to be 89 µM. Further, in series [3] (time point 12 h), the Kp at 12 h came out at 3.3, the blood/plasma exposure amounted to 6.4 µM and the liver exposure stood at 21 µM. In addition, in series [3] (time point 24 h), the Kp at 24 h came out at 3.6, the blood/plasma exposure was 0.75 µM and the liver exposure is 2.7 µM.

`CCOC(=O)c1ccc(CN(Cc2ccc(-c3cccc(C(C)(C)C(=O)O)c3)cc2)C(=O)c2c(C)ccc3ccccc23)o1` [27/28]: in series [1], the EC50 was < 100 nM. Moreover, in series [3] (time point 4 h), the Kp at 4 h was determined as 844, the blood/plasma exposure turned out to be 0.05 µM and the liver exposure came out at 38.8 µM.

In series [1], `Cc1ccc2ccccc2c1C(=O)N(Cc1ccc(-c2cccc(C(C)(C)C(=O)O)c2)cc1)Cc1ccc(C(F)F)o1` [27/36] yielded an EC50 of 100 to 1000 nM.

`Cc1ccc2ccccc2c1C(=O)N(Cc1ccc(-c2cccc(C(C)(C)C(=O)O)c2)cc1)Cc1ccc(C#N)o1` [27/38]: the EC50 in series [1] is < 100 nM.

`CCc1nc2ccccc2c(C(=O)N(Cc2ccc(-c3cccc(C(C)(C)C(=O)O)c3)cc2)Cc2ccc(C(F)(F)F)o2)c1C` [27/43] had an EC50 in series [1] of 1000 to 10000 nM. Further, in series [3] (time point 12 h), the Kp at 12 h was determined as 49, the blood/plasma exposure came to 0.03 µM and the liver exposure turned out to be 1.3 µM.

Regarding `COc1ccc2c(c1C(=O)N(Cc1ccc(-c3cccc(C(C)(C)C(=O)O)c3)cc1)Cc1ccc(C(F)(F)F)o1)CCCC2` [27/45], the EC50 in series [1] is < 100 nM.

On to `CC(C)(C(=O)O)c1cccc(-c2ccc(CN(Cc3ccc(C(F)(F)F)o3)C(=O)c3c4ccccc4cc4ccccc34)cc2)c1` [27/47], for which, in series [1], the EC50 is < 100 nM.

Take `COc1cc(-c2cccc(C(C)(C)C(=O)O)c2)ccc1CN(Cc1ccc(C(F)(F)F)o1)C(=O)c1c(C)ccc2ccccc12` [27/66]: the EC50 in series [1] was 100 to 1000 nM.

The molecule `Cc1ccc2ccccc2c1C(=O)N(Cc1ccc(-c2cc(F)cc(C3(C(=O)O)CC3)c2)cc1)Cc1ccc(C(F)(F)F)o1` [27/76] came in with an EC50 in series [1] of 100 to 1000 nM.

With `Cc1ccc2ccccc2c1C(=O)N(Cc1ccc(C(F)(F)F)o1)Cc1ncc(-c2cccc(C(C)(C)C(=O)O)c2)cc1Cl` [27/78], in series [1], the EC50 was < 100 nM. Besides, in series [3] (time point 4 h), the Kp at 4 h was 116, the blood/plasma exposure is 0.35 µM and the liver exposure stood at 40.9 µM.

Take `Cc1nc2ccccc2c(C(=O)N(Cc2ccc(-c3cccc(C(C)(C)C(=O)O)c3)cc2)Cc2ccc(C(F)(F)F)o2)c1C` [27/79]: the EC50 in series [1] fell in the range of 100 to 1000 nM.

On to `COc1c(C)nc2ccccc2c1C(=O)N(Cc1ccc(-c2cccc(C(C)(C)C(=O)O)c2)cc1)Cc1ccc(C(F)(F)F)o1` [27/81], for which the EC50 in series [1] was 100 to 1000 nM.

`Cc1nc2cccnc2c(C(=O)N(Cc2ccc(-c3cccc(C(C)(C)C(=O)O)c3)cc2)Cc2ccc(C(F)(F)F)o2)c1C` [27/93] displayed a 50% effective concentration (EC50) in series [1] of 100 to 1000 nM.

`Cc1ccc2ccccc2c1C(=O)N(Cc1ccc(-c2cccc(S(=O)(=O)CC(=O)O)c2)cc1)Cc1ccc(C(F)(F)F)o1` [Example 9] registered an EC50 in series [1] of 1000 to 10000 nM. Further, the half-maximal effective concentration (EC50) in series [2] lay within 100 to 1000 nM. Further, in series [3] (time point 4 h), the Kp at 4 h is 72, the blood/plasma exposure is 0.18 µM and the liver exposure amounted to 12.7 µM. Also, in series [3] (time point 24 h), the Kp at 24 h came to 25, the blood/plasma exposure stood at 0.00 µM and the liver exposure came to 0.10 µM.

As to `Cc1ccc2ccccc2c1CN(Cc1ccc(-c2cccc(C(C)(C)C(=O)O)c2)cc1)Cc1ccc(C(F)(F)F)o1` [Example 24, 2-Methyl-2-(4′-((((2-methylnaphthalen-1-yl)methyl)((5-(trifluoromethyl)furan-2-yl)methyl)amino)methyl)-[1,1′-biphenyl]-3-yl)propanoic acid], the 50% effective concentration (EC50) in series [1] is < 100 nM. The EC50 in series [2] is < 100 nM. Besides, in series [3] (time point 4 h), the Kp at 4 h worked out at 11, the blood/plasma exposure was 0.96 µM and the liver exposure was 10.3 µM. In series [3] (time point 12 h), the Kp at 12 h stood at 5.7, the blood/plasma exposure turned out to be 0.21 µM and the liver exposure came to 1.2 µM. In series [3] (time point 24 h), the Kp at 24 h was found to be 2.9, the blood/plasma exposure stood at 0.04 µM and the liver exposure turned out to be 0.13 µM.
